Values of other authors, collected in US11857553B2, “Chromium containing compositions for improving health and fitness” (NUTRITION 21, LLC, priority 2016, dated 2024).

Legend:
chromium absorption = settings: orally administered CrCl3
[1] = rats, several thousand times the upper limit of the ESADDI for chromium for humans

| Molecule | effect on chromium absorption (chromium absorption) | toxicity [1] |
| --- | --- | --- |
| CC(=O)Oc1ccccc1C(=O)O [aspirin] | facilitate chromium absorption | – |
| [Cl][Cr]([Cl])[Cl] [chromium chloride] | – | without toxic effects |
| COc1ccc2c(c1)c(CC(=O)O)c(C)n2C(=O)c1ccc(Cl)cc1 [indomethacin] | facilitate chromium absorption | – |
| chromium picolinate | – | without toxic effects |
